Laboratory results from patent US9556135B2, “Amino-dihydrothiazine and amino-dioxido dihydrothiazine compounds as beta-secretase antagonists and methods of use” (Amgen Inc., priority 2012, dated 2017).

Tested on: Abeta 40
Experiment: In vivo inhibition of beta-secretase: Abeta 40 reduction in CSF and brain of the rat
Details: 10 mpk (unless otherwise noted), after 4 hrs
Source text: In Vivo Inhibition of Beta-Secretase
Several animal models, including mouse, rat, dog, and monkey, may be used to screen for inhibition of beta-secretase activity in vivo following administration of a test compound sample. Animals used in this invention can be wild type, transgenic, or gene knockout animals. […] One to twenty-four hours following the administration of compound, animals are sacrificed, and brains as well as cerebrospinal fluid (CSF) and plasma are removed for analysis of A-beta levels and drug or test compound concentrations (Dovey et al., 2001, Journal of Neurochemistry, 76, 173-181) Beginning at time 0, animals are administered by oral gavage, or other means of delivery such as intravenous injection, an inhibitory test compound of up to 100 mg/kg in a standard, conventional formulation, such as 2% hydroxypropyl methylcellulose, 1% Tween80. A separate group of animals receive 2% hydroxypropyl methylcellulose, 1% Tween80 alone, containing no test compound, and serve as a vehicle-control group. At the end of the test period, animals are sacrificed and brain tissues, plasma or cerebrospinal fluid are collected. Brains are either homogenized in 10 volumes (w/v) of 0.2% diethylamine (DEA) in 50 mM NaCl (Best et al., 2005, Journal of Pharmacology and Experimental Therapeutics, 313, 902-908), or in 10 volumes of 0.5% TritonX-100 in Tris-buffered saline (pH at about 7.6). Homogenates are centrifuged at 355,000 g, 4° C. for 30 minutes. CSF or brain supernatants are then analyzed for the presence of A-beta peptide by specific sandwich ELISA assays based on ECL (Electrochemiluminescence) technology. For example, rat Abeta40 is measured using biotinylated-4G8 (Signet) as a capture antibody and Fab40 (an in-house antibody specific to the C-terminal of Abeta40) as a detection antibody.
Actual vehicles used: Oral: 2% HPMC, 1% Tween80, pH 2.2

## CC1(C)C(N)=N[C@](C)(c2cc(Nc3ncnc4cc(Cl)cnc34)ccc2F)C(F)S1(=O)=O (stereo partly drawn) [Example 228, N-(3-((3R)-5-amino-2-fluoro-3,6,6-trimethyl-1,1-dioxido-3,6-dihydro-2H-1,4-thiazin-3-yl)-4-fluorophenyl)-7-chloropyrido[3,2-d]pyrimidin-4-amine]
  % reduction of rat CSF levels at 10 pmk: 67%
  % reduction of rat brain levels at 10 mpk: 58%

## CC1(C)C(N)=N[C@](C)(c2cc(Nc3ncnc4cc(C#N)cnc34)ccc2F)C(F)S1(=O)=O (stereo partly drawn) [Example 229, 4-((3-((3R)-5-amino-2-fluoro-3,6,6-trimethyl-1,1-dioxido-3,6-dihydro-2H-1,4-thiazin-3-yl)-4-fluorophenyl)amino)pyrido[3,2-d]pyrimidine-7-carbonitrile]
  % reduction of rat CSF levels at 10 pmk: 61%
  % reduction of rat brain levels at 10 mpk: 43%

## CC1(C)C(N)=N[C@](CF)(c2cc(Nc3ncc(F)c4cc(Cl)cnc34)ccc2F)CS1(=O)=O [Example 233, N-(3-((3S)-5-amino-3-(fluoromethyl)-6,6-dimethyl-1,1-dioxido-3,6-dihydro-2H-1,4-thiazin-3-yl)-4-fluorophenyl)-3-chloro-5-fluoro-1,7-naphthyridin-8-amine]
  % reduction of rat CSF levels at 10 pmk: 25%
  % reduction of rat brain levels at 10 mpk: 0%

## CC1(C)C(N)=N[C@](CF)(c2cc(Nc3ncnc4cc(Cl)cnc34)ccc2F)CS1(=O)=O [Example 235, N-(3-((3S)-5-amino-3-(fluoromethyl)-6,6-dimethyl-1,1-dioxido-3,6-dihydro-2H-1,4-thiazin-3-yl)-4-fluorophenyl)-7-chloropyrido[3,2-d]pyrimidin-4-amine]
  % reduction of rat CSF levels at 10 pmk: 38%
  % reduction of rat brain levels at 10 mpk: 14%

## CC1(C)C(N)=N[C@](CF)(c2cc(Nc3ncnc4cc(C#N)cnc34)ccc2F)CS1(=O)=O [Example 236, 4-((3-((3S)-5-amino-3-(fluoromethyl)-6,6-dimethyl-1,1-dioxido-3,6-dihydro-2H-1,4-thiazin-3-yl)-4-fluorophenyl)amino)pyrido[3,2-d]pyrimidine-7-carbonitrile]
  % reduction of rat CSF levels at 10 pmk: 35%
  % reduction of rat brain levels at 10 mpk: 1%

## CC#CCOc1cnc(C(=O)Nc2ccc(F)c([C@]3(C)CS(=O)(=O)[C@@](C)(F)C(N)=N3)c2)cn1 [Example 317, N-(3-((3R,6R)-5-amino-6-fluoro-3,6-dimethyl-1,1-dioxido-3,6-dihydro-2H-1,4-thiazin-3-yl)-4-fluorophenyl)-5-(2-butyn-1-yloxy)-2-pyrazinecarboxamide]
  % reduction of rat CSF levels at 10 pmk: 23%
  % reduction of rat brain levels at 10 mpk: 0%

## Cc1cc(OC(F)F)cnc1C(=O)Nc1ccc(F)c([C@]2(C)CS(=O)(=O)[C@@](C)(F)C(N)=N2)c1 [Example 321, N-(3-((3R,6R)-5-amino-6-fluoro-3,6-dimethyl-1,1-dioxido-3,6-dihydro-2H-1,4-thiazin-3-yl)-4-fluorophenyl)-5-(difluoromethoxy)-3-methyl-2-pyridinecarboxamide]
  % reduction of rat CSF levels at 10 pmk: 44%
  % reduction of rat brain levels at 10 mpk: 37%

## Cc1cc(C#N)cnc1C(=O)Nc1ccc(F)c([C@]2(C)CS(=O)(=O)[C@@](C)(F)C(N)=N2)c1 [Example 324, N-(3-((3R,6R)-5-amino-6-fluoro-3,6-dimethyl-1,1-dioxido-3,6-dihydro-2H-1,4-thiazin-3-yl)-4-fluorophenyl)-5-cyano-3-methyl-2-pyridinecarboxamide]
  % reduction of rat CSF levels at 10 pmk: 44%
  % reduction of rat brain levels at 10 mpk: 29%

## CC1(C)C(N)=N[C@](C)(c2cc(NC(=O)c3ncc(Cl)cc3F)ccc2F)C(F)S1(=O)=O (stereo partly drawn) [Example 329, N-(3-((3R)-5-amino-2-fluoro-3,6,6-trimethyl-1,1-dioxido-3,6-dihydro-2H-1,4-thiazin-3-yl)-4-fluorophenyl)-5-chloro-3-fluoro-2-pyridinecarboxamide]
  % reduction of rat CSF levels at 10 pmk: 27%
  % reduction of rat brain levels at 10 mpk: 20%

## Cc1cc(OC(F)F)cnc1C(=O)Nc1ccc(F)c([C@@]2(C)N=C(N)C(C)(C)S(=O)(=O)C2F)c1 (stereo partly drawn) [Example 330, N-(3-((3R)-5-amino-2-fluoro-3,6,6-trimethyl-1,1-dioxido-3,6-dihydro-2H-1,4-thiazin-3-yl)-4-fluorophenyl)-5-(difluoromethoxy)-3-methyl-2-pyridinecarboxamide]
  % reduction of rat CSF levels at 10 pmk: 78%
  % reduction of rat brain levels at 10 mpk: 72%

## Cc1cc(Cl)cnc1C(=O)Nc1ccc(F)c([C@@]2(C)N=C(N)C(C)(C)S(=O)(=O)C2F)c1 (stereo partly drawn) [Example 331, N-(3-((3R)-5-amino-2-fluoro-3,6,6-trimethyl-1,1-dioxido-3,6-dihydro-2H-1,4-thiazin-3-yl)-4-fluorophenyl)-5-chloro-3-methyl-2-pyridinecarboxamide]
  % reduction of rat CSF levels at 10 pmk: 67%
  % reduction of rat brain levels at 10 mpk: 59%

## CC#CCOc1cnc(C(=O)Nc2ccc(F)c([C@@]3(C)N=C(N)C(C)(C)S(=O)(=O)C3F)c2)cn1 (stereo partly drawn) [Example 332, N-(3-((3R)-5-amino-2-fluoro-3,6,6-trimethyl-1,1-dioxido-3,6-dihydro-2H-1,4-thiazin-3-yl)-4-fluorophenyl)-5-(2-butyn-1-yloxy)-2-pyrazinecarboxamide]
  % reduction of rat CSF levels at 10 pmk: 24%
  % reduction of rat brain levels at 10 mpk: 11%

## CC1(C)C(N)=N[C@](C)(c2cc(NC(=O)c3cnc(OCC(F)(F)F)cn3)ccc2F)CS1(=O)=O [Example 346, N-(3-((3R)-5-amino-3,6,6-trimethyl-1,1-dioxido-3,6-dihydro-2H-1,4-thiazin-3-yl)-4-fluorophenyl)-5-(2,2,2-trifluoroethoxy)-2-pyrazinecarboxamide]
  % reduction of rat CSF levels at 10 pmk: 69%
  % reduction of rat brain levels at 10 mpk: 48%

## Cc1cc(Cl)cnc1C(=O)Nc1cnc(F)c([C@]2(C)CS(=O)(=O)C3(CCC3)C(N)=N2)c1 [Example 359, N-(5-((7R)-9-amino-7-methyl-5,5-dioxido-5-thia-8-azaspiro[3.5]non-8-en-7-yl)-6-fluoro-3-pyridinyl)-5-chloro-3-methyl-2-pyridinecarboxamide]
  % reduction of rat CSF levels at 10 pmk: 55%
  % reduction of rat brain levels at 10 mpk: 24%

## COc1cnc(C(=O)Nc2ccc(F)c([C@]3(CF)CS(=O)(=O)C(C)(C)C(N)=N3)c2)c(C)c1 [Example 377, N-(3-((3S)-5-amino-3-(fluoromethyl)-6,6-dimethyl-1,1-dioxido-3,6-dihydro-2H-1,4-thiazin-3-yl)-4-fluorophenyl)-5-methoxy-3-methyl-2-pyridinecarboxamide]
  % reduction of rat CSF levels at 10 pmk: 68%
  % reduction of rat brain levels at 10 mpk: 53%

## CC1(C)C(N)=N[C@](CF)(c2cc(Nc3nccc4cc(C#N)cnc34)ccc2F)CS1(=O)=O [Example 387, 8-((3-((3S)-5-amino-3-(fluoromethyl)-6,6-dimethyl-1,1-dioxido-3,6-dihydro-2H-1,4-thiazin-3-yl)-4-fluorophenyl)amino)-1,7-naphthyridine-3-carbonitrile]
  % reduction of rat CSF levels at 10 pmk: 43%
  % reduction of rat brain levels at 10 mpk: 27%

## Cc1cc(Cl)cnc1C(=O)Nc1ccc(F)c([C@]2(C)CS(=O)(=O)[C@@](C)(F)C(N)=N2)c1 [Example 388, N-(3-((3R,6R)-5-amino-6-fluoro-3,6-dimethyl-1,1-dioxido-3,6-dihydro-2H-1,4-thiazin-3-yl)-4-fluorophenyl)-5-chloro-3-methyl-2-pyridinecarboxamide]
  % reduction of rat CSF levels at 10 pmk: 33%
  % reduction of rat brain levels at 10 mpk: 7%

## CC1(C)C(N)=N[C@](C)(c2cc(NC(=O)c3ccc(Cl)cn3)cnc2F)CS1(=O)=O [Example 398, N-(5-((3R)-5-amino-3,6,6-trimethyl-1,1-dioxido-3,6-dihydro-2H-1,4-thiazin-3-yl)-6-fluoro-3-pyridinyl)-5-chloro-2-pyridinecarboxamide]
  % reduction of rat CSF levels at 10 pmk: 63%
  % reduction of rat brain levels at 10 mpk: 39%

## Cc1cc(OC(F)F)cnc1C(=O)Nc1cnc(F)c([C@]2(C)CS(=O)(=O)C(C)(C)C(N)=N2)c1 [Example 400, N-(5-((3R)-5-amino-3,6,6-trimethyl-1,1-dioxido-3,6-dihydro-2H-1,4-thiazin-3-yl)-6-fluoro-3-pyridinyl)-5-(difluoromethoxy)-3-methyl-2-pyridinecarboxamide]
  % reduction of rat CSF levels at 10 pmk: 58%
  % reduction of rat brain levels at 10 mpk: 25%

## COc1ccc(C(=O)Nc2cnc(F)c([C@]3(C)CS(=O)(=O)C(C)(C)C(N)=N3)c2)nc1 [Example 401, N-(5-((3R)-5-amino-3,6,6-trimethyl-1,1-dioxido-3,6-dihydro-2H-1,4-thiazin-3-yl)-6-fluoro-3-pyridinyl)-5-methoxy-2-pyridinecarboxamide]
  % reduction of rat CSF levels at 10 pmk: 69%
  % reduction of rat brain levels at 10 mpk: 48%

## CC1(C)C(N)=N[C@](C)(c2cc(NC(=O)c3cnc(OCC(F)(F)F)cn3)cnc2F)CS1(=O)=O [Example 402, N-(5-((3R)-5-amino-3,6,6-trimethyl-1,1-dioxido-3,6-dihydro-2H-1,4-thiazin-3-yl)-6-fluoro-3-pyridinyl)-5-(2,2,2-trifluoroethoxy)-2-pyrazinecarboxamide]
  % reduction of rat CSF levels at 10 pmk: 43%
  % reduction of rat brain levels at 10 mpk: 10%
